We go through 54 compounds from patent US7186831B2, “5-halo-2-alkyl[1,2,4]triazolo[1,5-a]pyrimidin-7-amines” (priority 2001, dated 2007).

Molecules are shown by their SMILES.

The data set in a line: log P by HPLC. In kind it is physicochemical. To be noted: EEC directive 79/831 Annex V. A8 by HPLC (gradient method, acetonitrile/0.1% aqueous phosphoric acid).
One may read the logP as a log measure of how a compound divides between an organic and an aqueous phase. `Cc1nc2nc(Cl)c(-c3c(F)cccc3F)c(NCC#N)n2n1` [compound 420]: the logP came to 1.91. For the compound `Cc1nc2nc(Cl)c(-c3c(F)cccc3F)c(NC(C)(C)C(F)(F)F)n2n1` [compound 421], the logP is listed as 3.34. For the compound `CNc1c(-c2c(F)cccc2F)c(Cl)nc2nc(C)nn12` [compound 422], the logP is on record as 2.03.

Take `Cc1nc2nc(Cl)c(-c3c(F)cccc3F)c(N3CCCCC3C(F)(F)F)n2n1` (stereo not drawn) [compound 423]: the logP is recorded as 3.33. For the compound `Cc1nc2nc(Cl)c(-c3c(F)cccc3F)c(NCC(F)(F)F)n2n1` [compound 424], the logP came to 2.56. Then `Cc1nc2nc(Cl)c(-c3c(F)cccc3F)c(NC3CCCCC3C(F)(F)F)n2n1` (stereo not drawn) [compound 425], with 3.52.

`Cc1nc2nc(Cl)c(-c3c(F)cccc3F)c(N(O)C(C)C)n2n1` [compound 426] returned a logP of 2.52. Turning to `Cc1nc2nc(Cl)c(-c3c(F)cccc3F)c(NOCc3ccccc3)n2n1` [compound 427], the logP was found to be 2.93. `Cc1nc2nc(Cl)c(-c3c(F)cccc3F)c(NOCc3cc(Cl)cc(Cl)c3)n2n1` [compound 428] gave a logP of 3.75. In the case of `Cc1nc2nc(Cl)c(-c3c(F)cccc3F)c(NOCc3ccc(Cl)cc3Cl)n2n1` [compound 429] it was 3.69; in that of `Cc1nc2nc(Cl)c(-c3c(F)cccc3F)c(NOCc3ccc(C(F)(F)F)cc3)n2n1` [compound 430], 3.44. `Cc1nc2nc(Cl)c(-c3c(F)cccc3F)c(NOCc3ccccc3Cl)n2n1` [compound 431]: the logP was 3.13.

`Cc1nc2nc(Cl)c(-c3c(F)cccc3F)c(NOCc3ccc(F)cc3)n2n1` [compound 432] displayed a logP of 2.9. Then `Cc1nc2nc(Cl)c(-c3c(F)cccc3F)c(NOCc3cccc(C(F)(F)F)c3)n2n1` [compound 433], with 3.41; and `CCCCONc1c(-c2c(F)cccc2F)c(Cl)nc2nc(C)nn12` [compound 434], with 2.96; and `Cc1nc2nc(Cl)c(-c3c(F)cccc3F)c(NOCc3c(Cl)cccc3Cl)n2n1` [compound 435], with 3.31. In the case of `CONc1c(-c2c(F)cccc2F)c(Cl)nc2nc(C)nn12` [compound 436] it was 2.07; in that of `Cc1nc2nc(Cl)c(-c3ccccc3Cl)c(NC(C)C(F)(F)F)n2n1` (stereo not drawn) [compound 437], 3.1. Consider `Cc1nc2nc(F)c(-c3ccccc3Cl)c(NC(C)C(F)(F)F)n2n1` (stereo not drawn) [compound 438], for which the logP was 2.97.

In turn, `Cc1nc2nc(Cl)c(-c3c(F)cc(F)cc3F)c(NC3CC3F)n2n1` (stereo not drawn) [compound 439] returned a logP of 2.3.

In turn, `CCOC(=O)CN(c1c(-c2c(F)cccc2F)c(Cl)nc2nc(C)nn12)C1CC1` [compound 440] returned a logP of 3. In the case of `Cc1nc2nc(Cl)c(-c3c(F)cccc3F)c(N3CCC(N)C3)n2n1` (stereo not drawn) [compound 441] it was 1.19; in that of `CC(=O)C1CCN(c2c(-c3c(F)cccc3F)c(Cl)nc3nc(C)nn23)CC1` [compound 442], 2.49. In the case of `Cc1nc2nc(Cl)c(-c3c(F)cccc3F)c(N3CCC(F)CC3)n2n1` [compound 443] it was 2.85; in that of `Cc1ccc(Nc2c(-c3c(F)cccc3F)c(Cl)nc3nc(C)nn23)cc1` [compound 444], 3.01; in that of `Cc1nc2nc(Cl)c(-c3c(F)cccc3F)c(Nc3ccc(F)cc3)n2n1` [compound 445], 2.71.

In the case of `Cc1nc2nc(Cl)c(-c3c(F)cccc3F)c(N3CCCc4ccccc43)n2n1` [compound 446], the logP was found to be 3.34.

`C=C(C)CN(CC)c1c(-c2ccccc2Cl)c(Cl)nc2nc(C3CC3)nn12` [compound 447] displayed a logP of 4.59. Then `C=C(C)CN(CC)c1c(-c2c(F)cc(F)cc2F)c(Cl)nc2nc(C3CC3)nn12` [compound 448], with 4.49; and `C=C(C)CN(CC)c1c(-c2c(F)cccc2Cl)c(Cl)nc2nc(C3CC3)nn12` [compound 449], with 4.61; and `CC(=O)NC1CCN(c2c(-c3ccc(F)cc3F)c(Cl)nc3nc(C)nn23)C1` (stereo not drawn) [compound 450], with 1.73. Then `Cc1nc2nc(Cl)c(-c3ccc(F)cc3F)c(N3CC(C)CC(C)C3)n2n1` (stereo not drawn) [compound 451], with 4.16. Regarding `Cc1nc2nc(Cl)c(-c3ccc(F)cc3F)c(N3CCCC(O)C3)n2n1` (stereo not drawn) [compound 452], the logP was 2.2. Take `COC(=O)C1CCCCN1c1c(-c2ccc(F)cc2F)c(Cl)nc2nc(C)nn12` (stereo not drawn) [compound 453]: the logP is recorded as 3.36. Then `Cc1nc2nc(Cl)c(-c3ccc(F)cc3F)c(N3CCC(F)CC3)n2n1` [compound 454], with 2.96; and `Cc1nc2nc(Cl)c(-c3ccc(F)cc3F)c(N3CC(C)OC(C)C3)n2n1` (stereo not drawn) [compound 455], with 2.94; and `Cc1cccc(Nc2c(-c3ccc(F)cc3F)c(Cl)nc3nc(C)nn23)c1` [compound 456], with 3. `CC(Nc1c(-c2c(F)cccc2Cl)c(Cl)nc2nc(C3CC3)nn12)C(F)(F)F` (stereo not drawn) [compound 457] returned a logP of 3.59. `CC(Nc1c(-c2c(F)cc(F)cc2F)c(Cl)nc2nc(C3CC3)nn12)C(F)(F)F` (stereo not drawn) [compound 458]: the logP amounted to 3.58. Then `CC(C)CNc1c(-c2c(F)cc(F)cc2F)c(Cl)nc2nc(C3CC3)nn12` [compound 460], with 3.69. In the case of `CC(C)(C)CNc1c(-c2c(F)cc(F)cc2F)c(Cl)nc2nc(C3CC3)nn12` [compound 461], the logP is given as 4.19. With `CCC(C)Nc1c(-c2c(F)cc(F)cc2F)c(Cl)nc2nc(C3CC3)nn12` (stereo not drawn) [compound 462], the logP is 3.69.

In turn, `Fc1cc(F)c(-c2c(Cl)nc3nc(C4CC4)nn3c2NC2CCCC2)c(F)c1` [compound 463] registered a logP of 3.9. As for `CC(C)Nc1c(-c2c(F)cc(F)cc2F)c(Cl)nc2nc(C3CC3)nn12` [compound 464], the logP is listed as 3.35.

Regarding `Fc1cc(F)c(-c2c(Cl)nc3nc(C4CC4)nn3c2NCC2CC2)c(F)c1` [compound 465], the logP was determined as 3.43. With `C=C(C)CNc1c(-c2c(F)cc(F)cc2F)c(Cl)nc2nc(C3CC3)nn12` [compound 466], the logP is given as 3.34. `CC(C)CN(C)c1c(-c2c(F)cc(F)cc2F)c(Cl)nc2nc(C3CC3)nn12` [compound 467]: the logP came to 4.36.

`COCCN(C)c1c(-c2c(F)cc(F)cc2F)c(Cl)nc2nc(C3CC3)nn12` [compound 468] had a logP of 3.29. Then `C=C(C)CN(C)c1c(-c2c(F)cc(F)cc2F)c(Cl)nc2nc(C3CC3)nn12` [compound 469], with 4.27; and `CCN(CCOC)c1c(-c2c(F)cc(F)cc2F)c(Cl)nc2nc(C3CC3)nn12` [compound 470], with 3.64.

`CC1CCCN1c1c(-c2c(F)cc(F)cc2F)c(Cl)nc2nc(C3CC3)nn12` (stereo not drawn) [compound 471]: the logP worked out at 3.9.

For `Fc1cc(F)c(-c2c(Cl)nc3nc(C4CC4)nn3c2N2CCCC2)c(F)c1` [compound 472], the logP was 3.52. Then `CC1CCN(c2c(-c3c(F)cc(F)cc3F)c(Cl)nc3nc(C4CC4)nn23)CC1` [compound 473], with 4.66; and `Fc1cc(F)c(-c2c(Cl)nc3nc(C4CC4)nn3c2N2CCCCC2)c(F)c1` [compound 474], with 4.22.
